Reference: patent EP4763839A1 (Pamplona Therapeutics (Shenzhen) Co., Ltd., priority 2023, dated 2025)

How the values were obtained:
IRAK4 = target: T1, IRAK4 (Homo sapiens, UniProt Q9NWZ3); assay: Degradation of IRAK4 in THP1 cells, Western blot; type: cell-based; design: Degradation of IRAK4 in THP1 by compound; host or cells: THP-1; conditions: THP-1 cells, 24 hours of incubation; for DC50: IRAK4 protein by Western blot, read-out: DC50; for Dmax: maximum degradation rate, read-out: Dmax
T1 sequence (Q9NWZ3 1-460): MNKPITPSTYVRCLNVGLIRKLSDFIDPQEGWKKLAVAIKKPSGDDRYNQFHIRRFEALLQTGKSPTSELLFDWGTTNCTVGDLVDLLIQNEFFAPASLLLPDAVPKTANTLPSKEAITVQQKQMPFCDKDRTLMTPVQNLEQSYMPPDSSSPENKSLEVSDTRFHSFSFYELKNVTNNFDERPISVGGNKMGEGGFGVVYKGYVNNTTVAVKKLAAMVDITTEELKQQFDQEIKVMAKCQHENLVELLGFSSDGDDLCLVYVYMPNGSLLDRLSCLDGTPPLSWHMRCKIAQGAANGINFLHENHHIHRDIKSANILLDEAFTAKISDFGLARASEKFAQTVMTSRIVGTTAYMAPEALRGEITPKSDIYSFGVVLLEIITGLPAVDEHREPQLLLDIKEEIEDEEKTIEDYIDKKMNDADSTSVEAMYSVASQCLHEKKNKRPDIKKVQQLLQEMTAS
How it was run: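 Degradation rate derived from densitometry of IRAK4 bands versus DMSO-treated controls. Read-out: anti-IRAK4 immunoblot (10% gel, 40 μg total protein per lane, BCA-normalised) of lysates from THP1 cells incubated with compound for 24 h.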

IL-6 = assay: Inhibition of R848-induced IL-6 release in human PBMCs, IL-6 ELISA; type: cell-based; conditions: compound 24 hours, then R848 10 µg/mL 5 hours
Description: Example 3: Detection of inhibition of R848-induced IL-6 release
Cryopreserved human PBMCs (Milestone® Biotechnologies, PB010C-W) were thawed and resuspended in RPMI-1640 medium (Gibco, 22400-105) supplemented with 10% fetal bovine serum (Gibco, 10099-141), 100 U/mL penicillin, and 100 µg/mL streptomycin (Gibco, 15140122). Subsequently, 190 µL of the PBMC suspension was added to each well of 96-well clear cell culture plates (Corning, 3599) to achieve a density of 1×10^5 cells/well. The cell plates were incubated at 37°C in a 5% CO2 incubator for 30 minutes. Then, 5 µL of diluted compound solution was added to the corresponding cell-seeded wells to achieve final concentrations ranging from 0.046 to 3,000 nM. The final concentration of DMSO was 0.1%. After the compound-treated cell plate was incubated at 37°C in a 5% CO2 incubator for 24 hours, 5 µL of R848 (MCE, HY-13740) was added to achieve a final concentration of 10 µg/mL. The cell plates were incubated again at 37°C in a 5% CO2 incubator for 5 hours, then centrifuged at 1,000 rpm for 1 minute. 100 µL of the cell supernatant from each well was transferred to a new 96-well clear cell culture plate for IL-6 concentration testing.
Interleukin-6 (IL-6) ELISA assay
The IL-6 concentration in the supernatant of R848-induced human PBMCs was determined using a Human IL-6 (interleukin-6) ELISA KIT (4Bio, CHE0009-048). IL-6 standard solutions at different concentrations, ranging from 3.9 to 250 pg/mL, were prepared according to the manufacturer's instructions. 100 µL of each concentration of the IL-6 standard solution and the pre-diluted test cell supernatant samples were added separately to anti-IL-6 antibody-coated and blocked clear 96-well plates, followed by incubation at 37°C for 1.5 hours. According to the product instructions, the plates were washed, 100 µL of biotinylated antibody was added, and the plates were incubated at 37°C for 1 hour. The plates were washed, 100 µL of enzyme conjugate working solution was added. The plates were incubated at 37°C for 30 minutes, and then washed. 100 µL of chromogenic substrate was added, and the plates were incubated at 37°C for 10-20 minutes. The reaction was terminated by adding 100 µL of stop solution. After the reaction, the OD value at 450 nm was measured in absorbance mode using an Envision microplate reader (PerkinElmer). A standard curve was plotted using the corrected OD values of the various concentrations of IL-6 standard solutions. The IL-6 concentration in each cell supernatant was then determined on the basis of the corresponding concentration for the corrected OD value of the test sample on the standard curve. […] Subsequently, the IC50 value of the compound was calculated by performing non-linear curve fitting of concentration versus inhibition rate using GraphPad Prism 9.

Question: `NC(=O)c1nn(-c2ccc(N3CCN(CC4CCN(c5ccc6c(c5)C(=O)N(C5CCC(=O)NC5=O)C6=O)CC4)CC3)cc2)cc1NC(=O)c1cccc(C(F)(F)F)n1` (stereo not shown) [Compound A122] was tested. Which DC50 (IRAK4) did it give?
Answer: The DC50 was < 100 nM.

Question: And the Dmax (IRAK4)?
Answer: The Dmax was > 60%.

Question: What about the IC50 (IL-6; PBMC) of the same compound?
Answer: The IC50 was < 10 nM.

Question: For `Cn1c(=O)n(C2CCC(=O)NC2=O)c2cccc(N3CCC4(CCN(C(=O)c5ccc(-n6cc(NC(=O)c7cccc(C(F)(F)F)n7)c(C(N)=O)n6)cc5)C4)CC3)c21` (stereo not shown) [Compound A135], which DC50 (IRAK4) is on record?
Answer: The DC50 was < 100 nM.

Question: And the Dmax (IRAK4)?
Answer: Its Dmax is > 60%.

Question: And the IC50 (IL-6; PBMC)?
Answer: The IC50 was < 10 nM.

Question: How did the DC50 (IRAK4) turn out when `Cn1c(=O)n(C2CCC(=O)NC2=O)c2cccc(N3CCC4(CC3)CC(NCc3ccc(-n5cc(NC(=O)c6cccc(C(F)(F)F)n6)c(C(N)=O)n5)cc3)C4)c21` (stereo not shown) [Compound A137] was run?
Answer: Its DC50 is < 100 nM.

Question: What about the Dmax (IRAK4) of the same compound?
Answer: The Dmax was > 60%.

Question: What about the IC50 (IL-6; PBMC) of the same compound?
Answer: Its IC50 is < 10 nM.

Question: How did the DC50 (IRAK4) turn out when `Cn1c(=O)n(C2CCC(=O)NC2=O)c2cccc(N3CCC4(CCN(Cc5ccc(-n6cc(NC(=O)c7cccc(C(F)(F)F)n7)c(C(N)=O)n6)cc5)C4)CC3)c21` (stereo not shown) [Compound A140] was run?
Answer: The DC50 was < 100 nM.

Question: What about the Dmax (IRAK4) of the same compound?
Answer: Its Dmax is > 60%.

Question: What about the IC50 (IL-6; PBMC) of the same compound?
Answer: Its IC50 is < 10 nM.

Question: For `COc1ccc(C(=O)N2CCN(CCN3CCN(c4ccc(-n5cc(NC(=O)c6cccc(C(F)(F)F)n6)c(C(N)=O)n5)cc4)CC3)CC2)cc1N1CCC(=O)NC1=O` [Compound A143], which DC50 (IRAK4) is on record?
Answer: Its DC50 is < 100 nM.

Question: What about the Dmax (IRAK4) of the same compound?
Answer: Its Dmax is > 60%.

Question: And the IC50 (IL-6; PBMC)?
Answer: The IC50 was < 10 nM.

Question: How did the DC50 (IRAK4) turn out when `COc1ccc(C(=O)N2CCC(CCN3CCN(c4ccc(-n5cc(NC(=O)c6cccc(C(F)(F)F)n6)c(C(N)=O)n5)cc4)CC3)CC2)cc1N1CCC(=O)NC1=O` [Compound A144] was run?
Answer: The DC50 was < 100 nM.

Question: And the Dmax (IRAK4)?
Answer: Its Dmax is > 60%.

Question: What about the IC50 (IL-6; PBMC) of the same compound?
Answer: The IC50 was < 10 nM.

Question: `COc1ccc(C(=O)N2CCC(CCN3CCN(c4ccc(-n5cc(NC(=O)c6cccc(C(F)(F)F)n6)c(C(F)F)n5)cc4)CC3)CC2)cc1N1CCC(=O)NC1=O` [Compound A148] was tested. Which DC50 (IRAK4) did it give?
Answer: The DC50 was 100 to 1000 nM.

Question: And the Dmax (IRAK4)?
Answer: Its Dmax is > 60%.

Question: What about the IC50 (IL-6; PBMC) of the same compound?
Answer: Its IC50 is 10 to 30 nM.

Question: Which results are given for `Cn1c(=O)n(C2CCC(=O)NC2=O)c2cccc(N3CCN(CCN4CCN(c5ccc(N6C=C(NC(=O)c7cccc(C(F)(F)F)n7)C(=C=O)N6)cc5)CC4)CC3)c21` (stereo not shown) [Compound A180, N-(3-carbonyl-1-(4-(4-(2-(4-(1-(2,6-dioxopiperidin-3-yl)-3-methyl-2-oxo-2,3-dihydro-1H-benzo[d]imidazol-4-yl)piperazin-1-yl)ethyl)piperazin-1-yl)phenyl)-1H-pyrazol-4-yl)-6-(trifluoromethyl)picolinamide]?
Answer: DC50 (IRAK4): < 100 nM; Dmax (IRAK4): > 60%; IC50 (IL-6; PBMC): < 10 nM

Question: Which IC50 (IL-6; PBMC) does the source give for `NC(=O)c1nn(-c2ccc(N3CCN(CC4CCN(c5ccc(N6CCC(=O)NC6=O)cc5)CC4)CC3)cc2)cc1NC(=O)c1cccc(C(F)(F)F)n1` [Compound A192, N-(3-carbamoyl-1-(4-((1-(4-(2,4-dioxotetrahydropyrimidin-1(2H)-yl)phenyl)piperidin-4-yl)methyl)piperazin-1-ylphenyl)-1H-pyrazol-4-yl)-6-(trifluoromethyl)picolinamide] here?
Answer: The IC50 was 10 to 30 nM.

Question: Which IC50 (IL-6; PBMC) does the source give for `NC(=O)c1nn(-c2ccc(N3CCN(CCC4CCN(c5ccc(NC6CCC(=O)NC6=O)cc5F)CC4)CC3)cc2)cc1NC(=O)c1cccc(C(F)(F)F)n1` (stereo not shown) [Compound A194, N-(3-Carbonyl-1-(4-(4-(2-(4-(((2,6-dioxopiperidin-3-yl)amino)-2-fluorophenyl)piperidin-4-yl)ethyl)piperazin-1-yl)phenyl)-1H-pyrazol-4-yl)-6-(trifluoromethyl)picolinamide] here?
Answer: Its IC50 is < 10 nM.

Question: `NC(=O)c1nn(-c2ccc(CN3CCC4(CC3)CCN(c3ccc5c(c3)C(=O)N(C3CCC(=O)NC3=O)C5=O)CC4)cc2)cc1NC(=O)c1cccc(C(F)(F)F)n1` (stereo not shown) [Compound A222, N-(3-carbamoyl-1-(4-((9-(2-(2,6-dioxopiperidin-3-yl)-1,3-dioxoisoindolin-5-yl)-3,9-diazaspiro[5.5]undecan-3-yl)methyl)phenyl)-1H-pyrazol-4-yl)-6-(trifluoromethyl)picolinamide] was tested. Which IC50 (IL-6; PBMC) did it give?
Answer: The IC50 was 10 to 30 nM.

Question: For “N-(3-carbamoyl-1-(4-((1-(3-(2,4-dioxotetrahydropyrimidin-1(2H)-yl)-4-methoxybenzoyl)piperidin-4-yl)methyl)piperazin-1-yl)phenyl)-1H-pyrazol-4-yl)-6-(trifluoromethyl)picolinamide [Compound A175]”, which IC50 (IL-6) is on record?
Answer: The IC50 was < 10 nM.
